In patent publication US20050004126A1 (priority 2001, published 2005):

Target: MMP-13CD (catalytic domain of collagenase 3) (Homo sapiens, UniProt P45452)
Experiment: Thiopeptolide hydrolysis assay, MMP-13;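 note: inhibition of enzymatic thiopeptolide substrate cleavage (100 µM) in pH 6.0 MES buffer with CaCl2 and DTNB, comparing hydrolysis with versus without inhibitor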
Details: IC50 μM, Table V; MMP-13

Point of comparison: `O=C(NCc1ccc2c(c1)OCO2)c1ccc2c(c1)c(=O)n(Cc1ccccc1)c1nccn21` [4-Benzyl-5-oxo-4,5-dihydro-imidazo[1,2-a]quinazoline-7-carboxylic acid (benzo[1,3]dioxol-5-ylmethyl)-amide], IC50 0.165 µM. Against it:
- O=C(NCc1ccncc1)c1ccc2c(c1)c(=O)n(C/C=C/c1ccncc1)c1nncn21 [N-(pyridin-4-ylmethyl) 4-[3-(pyridin-4-yl)-2-propen-1-yl]-5-oxo-4H-[1,2,4]triazolo[4,3-a]quinazol-7-ylcarboxamide] — 2.1-fold higher, 0.35 µM
- O=C(NCc1ccncc1)c1ccc2c(c1)c(=O)n(Cc1ccccc1)c1nncn21 [4-Benzyl-5-oxo-4,5-dihydro-[1,2,4]triazolo[4,3-a]quinazoline-7-carboxylic acid (pyridin-4-ylmethyl)-amide] — 4.1-fold lower, 0.04 µM
- N#Cc1ccc(Cn2c(=O)c3cc(C(=O)NCc4ccncc4)ccc3n3cnnc23)cc1 [N-(pyridin-4ylmethyl)-4-(4-cyanobenzyl)-5-oxo-4H-[1,2,4]triazolo[4,3-a]quinazol-7-ylcarboxamide] — 7.9-fold lower, 0.021 µM
- O=C(NCc1ccc2c(c1)OCO2)c1ccc2c(c1)c(=O)n(Cc1ccccc1)c1nncn21 [Synthesis Example 57, N-(3,4-Methylenedioxybenzyl)-4-benzyl-5-oxo-4H-[1,2,4]triazolo[4,3-a]quinazol-7-ylcarboxamide] — 41-fold lower, 0.004 µM
- COc1ccc(CNC(=O)c2ccc3c(c2)c(=O)n(CCOc2ccc(Cl)cc2)c2nncn32)cc1 [4-[2-(4-Chloro-phenoxy)-ethyl]-5-oxo-4,5-dihydro-[1,2,4]triazolo[4,3-a]quinazoline-7-carboxylic acid 4-methoxy-benzylamide] — 1.9-fold lower, 0.0865 µM
- COc1ccc(CNC(=O)c2ccc3c(c2)c(=O)n(Cc2ccccc2)c2nncn32)cc1 [N-(4-Methoxybenzyl)-4-benzyl-5-oxo-4,5-dihydro[1,2,4]triazolo [4,3-a]quinazoline-7-carboxamide] — 30-fold lower, 0.0055 µM
- COC(=O)c1ccc(Cn2c(=O)c3cc(C(=O)NCc4ccncc4)ccc3n3cnnc23)cc1 [Methyl 4-{7-[(pyridin-4-ylmethyl)-carbamoyl]-5-oxo-5H-[1,2,4]triazolo[4,3-a]quinazol-4-ylmethyl}benzoate] — 14-fold lower, 0.012 µM

Same assay, conditions: MMP 13 IC50 μM, Table III

With `COc1cccc(CNC(=O)c2cc3c(=O)n(Cc4ccc5cocc5c4)c(=O)n(C)c3s2)c1` the IC50 was 0.0505 µM.

Same assay, conditions: MMP13 IC50 μM, Table IVb

Point of comparison: `COc1ccc(CNC(=O)c2ccc3c(c2)c(=O)n(Cc2ccc(NC(C)=O)cc2)c(=O)n3C)cc1`, IC50 0.009 µM. Against it:
- COc1ccc(CNC(=O)c2ccc3c(c2)c(=O)n(C/C=C/c2ccncc2)c(=O)n3C)cc1 — 3.9-fold higher, 0.035 µM
- Cn1c(=O)n(Cc2ccccc2)c(=O)c2cc(C(=O)OC/C=C/c3cccnc3)ccc21 — 38-fold higher, 0.34 µM
- COc1ccc(CNC(=O)c2ccc3c(c2)c(=O)n(Cc2ccc(C(=O)OCC(=O)OC(C)(C)C)cc2)c(=O)n3C)cc1 — 9.8-fold higher, 0.088 µM
- COc1ccc(CNC(=O)c2ccc3c(c2)c(=O)n(Cc2ccc(CC(=O)N(C)C)cc2)c(=O)n3C)cc1 — within 1.5-fold, 0.008 µM
- CCOC(=O)Cn1c(=O)c2cc(C(=O)NCc3ccc(OC)cc3)ccc2n(C)c1=O — 72-fold higher, 0.65 µM
- Cn1c(=O)c2cc(C(=O)NCc3ccc4c(c3)OCO4)cnc2n(C)c1=O — 430-fold higher, 3.85 µM
- COc1ccc(CNC(=O)c2ccc3c(c2)c(=O)n(Cc2ccc(-c4ccccc4-c4nnn[nH]4)cc2)c(=O)n3C)cc1 — 2.8-fold higher, 0.025 µM
- COc1ccc(CNC(=O)c2ccc3c(c2)c(=O)n(Cc2ccc(C4(C(=O)O)CC4)cc2)c(=O)n3C)cc1 — 2.7-fold lower, 0.0033 µM
- COC(=O)c1ccc(Cn2c(=O)c3cc(C(=O)NCc4ccc(OC)cc4)ccc3n(C)c2=O)cc1C — within 1.5-fold, 0.0077 µM
- Cn1c(=O)n(Cc2ccc(C(=O)O)cc2)c(=O)c2cc(C(=O)NCc3ccc4c(c3)OCO4)ccc21 — 10-fold lower, 0.0009 µM
- Cn1c(=O)n(Cc2ccc(C(=O)O)cc2)c(=O)c2cc(C(=O)NCc3ccncc3)ccc21 — 1.6-fold lower, 0.0057 µM
- Cn1c(=O)n(Cc2ccc(F)c(F)c2)c(=O)c2cc(C(=O)NCc3ccncc3)ccc21 — 3.6-fold higher, 0.032 µM
- Cn1c(=O)n(Cc2ccc(F)cc2)c(=O)c2cc(C(=O)NCc3ccncc3)ccc21 — 7.9-fold higher, 0.071 µM
- COc1ccc(CNC(=O)c2ccc3c(c2)c(=O)n(Cc2ccc(-c4ccccc4C(=O)O)cc2)c(=O)n3C)cc1 — within 1.5-fold, 0.013 µM
- O=C(O)Cn1c(=O)n(Cc2ccccc2)c(=O)c2cc(C(=O)NCc3ccc4c(c3)OCO4)ccc21 — 12-fold higher, 0.105 µM
- COc1ccc(CNC(=O)c2cc3c(=O)n(Cc4ccc(C(=O)O)cc4)c(=O)n(C)c3cn2)cc1 — 12-fold lower, 0.00074 µM
- CSc1ccc(CNC(=O)c2ccc3c(c2)c(=O)n(Cc2ccc(C(=O)O)cc2)c(=O)n3C)cc1 — 3.1-fold lower, 0.0029 µM
- COc1cc(CNC(=O)c2ccc3c(c2)c(=O)n(Cc2ccc(Cl)cc2)c(=O)n3C)ccn1 — within 1.5-fold, 0.011 µM
- COC(=O)c1ccc(Cn2c(=O)c3cc(C(=O)NCc4cccc(OC)c4)ccc3n(C)c2=O)cc1 — 3-fold lower, 0.003 µM
- Cn1c(=O)c2cc(C(=O)NCc3ccc4c(c3)OCO4)ncc2n(C)c1=O — 20-fold higher, 0.18 µM
- Cn1c(=O)n(Cc2ccccc2)c(=O)c2cc(C(=O)OC/C=C/c3ccncc3)ccc21 — 43-fold higher, 0.385 µM
- COC(=O)c1ccc(Cn2c(=O)c3cc(C(=O)NCc4ccc(OC)cc4)ccc3n(C)c2=O)o1 — 32-fold higher, 0.29 µM
- COc1ccc(CNC(=O)c2ccc3c(c2)c(=O)n(Cc2ccc(-c4nn[nH]n4)cc2)c(=O)n3C)cc1 — 10-fold lower, 0.0009 µM
- CCn1c(=O)n(Cc2cccc(F)c2)c(=O)c2cc(C(=O)NCc3ccncc3)ccc21 — 11-fold higher, 0.1 µM
- COc1ccc(Cn2c(=O)c3cc(C(=O)NCc4ccncc4)ccc3n(C)c2=O)cc1 — 6.7-fold higher, 0.06 µM
- COCCn1c(=O)c2cc(C(=O)NCc3ccc(OC)cc3)ccc2n(C)c1=O — 150-fold higher, 1.35 µM
- COc1ccc(CNC(=O)c2ccc3c(c2)c(=O)n(Cc2ccc(F)c(Cl)c2)c(=O)n3C)cc1 — within 1.5-fold, 0.012 µM
- COc1ccc(CNC(=O)c2ccc3c(c2)c(=O)n(Cc2ccc(S(=O)(=O)N(C)C)cc2)c(=O)n3C)cc1 — within 1.5-fold, 0.007 µM
- COc1ccc(CNC(=O)c2ccc3c(c2)c(=O)n(Cc2ccc(S(N)(=O)=O)cc2)c(=O)n3C)cc1 — within 1.5-fold, 0.008 µM
- COC(=O)c1cccc(Cn2c(=O)c3cc(C(=O)NCc4ccc(OC)cc4)ccc3n(C)c2=O)c1 — 13-fold higher, 0.12 µM
- Cn1c(=O)n(Cc2ccc(C(=O)O)cc2)c(=O)c2cc(C(=O)NCc3ccc(O)cc3)ccc21 — 4.5-fold lower, 0.002 µM
- COC(=O)c1ccc(Cn2c(=O)c3cc(C(=O)NCc4ccc(OC)cc4)ccc3n(C)c2=O)s1 — 2.3-fold higher, 0.021 µM
- CCn1c(=O)n(Cc2ccc(C(=O)OC)cc2)c(=O)c2cc(C(=O)NCc3ccc(OC)cc3)ccc21 — 3.4-fold higher, 0.031 µM

Same assay, conditions: MMP13 IC50 (nM), Table II

Point of comparison: `COc1ccc(C(=O)NCc2ccccc2)cc1C(=O)NCCOc1ccccc1`, IC50 8.7 µM. Against it:
- COc1ccc(C(=O)NCc2ccc3c(c2)OCO3)cc1C(=O)NCc1ccc(Cl)cc1 [N-1,3-Benzodioxol-5-ylmethyl-N′-(4-chloro-benzyl)-4-methoxy-isophthalamide] — 22-fold lower, 0.4 µM
- CC(=O)Nc1ccc(C(=O)NCc2ccc3c(c2)OCO3)cc1C(=O)NCc1ccc2c(c1)OCO2 — 1.7-fold lower, 5.2 µM
- COc1ccc(CNC(=O)c2ccc(OC)c(C(=O)NCc3ccccc3)c2)cc1 — 20-fold lower, 0.43 µM
- COc1ccc(C(=O)NCCOc2ccccc2)cc1C(=O)NCc1ccc2c(c1)OCO2 — 2.8-fold lower, 3.1 µM

Same assay, conditions: MMP13 IC50 (μM), Table 1b

Point of comparison: `CC(C)=CCn1c(=O)c(C)c2sc(C(=O)NCc3ccc(F)cc3)cn2c1=O`, IC50 0.82 µM. Against it:
- CCC#CCn1c(=O)c(C)c2sc(C(=O)NCc3ccc(F)cc3)cn2c1=O — 8.9-fold lower, 0.092 µM
- COC(=O)c1nc(Cn2c(=O)c(C)c3sc(C(=O)NCc4ccc(F)cc4)cn3c2=O)ncc1OC — 2.3-fold higher, 1.85 µM

Same assay, conditions: read-out: MMP 13 IC50 μM; Table III

Work on `COc1ccc(CNC(=O)c2cc3c(=O)n(CCS(=O)(=O)c4ccccc4)c(=O)n(C)c3s2)cc1` yielded an IC50 of 4 µM.
